Patent US20240124444A1 (Celgene Corporation, priority 2020, published 2024)
Like-named read-outs stand apart in the source and are kept apart here.

Test system: C. parvum strain UGA1
Experiment: C. parvum growth inhibition assay (Nluc luminescence in HCT-8 cells)
Type: cell-based, Cryptosporidium parvum
Conditions: Cryptosporidium parvum; for inhibition at 1 µM / inhibition at 10 µM: HCT-8; for inhibition at 1 µM: read-out: % inh @ 1 uM C. parvum; for inhibition at 10 µM: read-out: % inh @ 10 uM C. parvum; for EC50: HCT-8, 48 h, C. parvum growth inhibition in HCT-8 cells, 48 hours, 6 concentrations 10-0.04 μM
[1] = single point inhibition at 1 uM
[2] = single point inhibition at 10 uM
[3] = single point inhibition @ 10 uM

Structure (SMILES) | inhibition at 1 µM [1] [%] | inhibition at 10 µM [2] [%] | EC50 [µM] | other results
COc1nccc(-c2cc3cnc(NC(=O)c4cn(CC5CCOC5)nc4C)cc3[nH]2)n1 (stereo in doubt) [Example 246, (R)-N-(2-(2-methoxypyrimidin-4-yl)-1H-pyrrolo[3,2-c]pyridin-6-yl)-3-methyl-1-((tetrahydrofuran-3-yl)methyl)-1H-pyrazole-4-carboxamide] | 0 to 33 | 0 to 33 |  | 
Cn1cc(C(=O)Nc2cc3[nH]c(-c4ccc(C(F)(F)F)nc4)cc3cn2)cn1 [Example 306, 1-methyl-N-(2-(6-(trifluoromethyl)pyridin-3-yl)-1H-pyrrolo[3,2-c]pyridin-6-yl)-1H-pyrazole-4-carboxamide] | 0 to 33 | 0 to 33 |  | 
Cc1cc(-c2cc3cnc(N(C)C4CCOCC4)cc3[nH]2)ccn1 [Example 114, N-methyl-2-(2-methylpyridin-4-yl)-N-(tetrahydro-2H-pyran-4-yl)-1H-pyrrolo[3,2-c]pyridin-6-amine] |  |  | > 1 | 
CC(C)c1nccc(-c2cc3cnc(NC4CCOCC4)cc3n2C)n1 [Example 391, 2-(2-isopropylpyrimidin-4-yl)-1-methyl-N-(tetrahydro-2H-pyran-4-yl)-1H-pyrrolo[3,2-c]pyridin-6-amine] |  |  | > 1 | 
Cc1cc(-c2cc3cnc(NC(=O)C4CC(C)(O)C4)cc3[nH]2)ccn1 (stereo not shown) [Example 202, 3-hydroxy-3-methyl-N-(2-(2-methylpyridin-4-yl)-1H-pyrrolo[3,2-c]pyridin-6-yl)cyclobutanecarboxamide] | 0 to 33 | 67 to 100 |  | 
O=C(Nc1cc2[nH]c(-c3cccnc3)cc2cn1)C1CCCC1 [Example 276, N-(2-(pyridin-3-yl)-1H-pyrrolo[3,2-c]pyridin-6-yl)cyclopentanecarboxamide] | 0 to 33 | 0 to 33 |  | 
O=C(Nc1cc2[nH]c(C(F)(F)F)cc2cn1)C1CCOCC1 [Example 105, N-(2-(trifluoromethyl)-1H-pyrrolo[3,2-c]pyridin-6-yl)tetrahydro-2H-pyran-4-carboxamide] |  |  | > 1 | 
Cn1cc(C(=O)Nc2cc3[nH]c(-c4ccnc(OC5CC(O)C5)n4)cc3cn2)cn1 (stereo not shown) [Example 324, N-(2-(2-(3-hydroxycyclobutoxy)pyrimidin-4-yl)-1H-pyrrolo[3,2-c]pyridin-6-yl)-1-methyl-1H-pyrazole-4-carboxamide] | 0 to 33 | 0 to 33 |  | 
CCOc1nccc(-c2cc3cnc(NC(=O)c4cnn(C)c4)cc3n2CC(C)C)n1 [Example 316, N-(2-(2-ethoxypyrimidin-4-yl)-1-isobutyl-1H-pyrrolo[3,2-c]pyridin-6-yl)-1-methyl-1H-pyrazole-4-carboxamide] | 0 to 33 | 0 to 33 |  | 
CSc1ccc(Nc2cc3c(cn2)cc(-c2cnn(C)c2)n3C)cc1 [Example 193, 1-methyl-2-(1-methyl-1H-pyrazol-4-yl)-N-(4-(methylthio)phenyl)-1H-pyrrolo[3,2-c]pyridin-6-amine] |  |  |  | inhibition at 1 µM (single point inhibition @ 1 uM): 0 to 33%; inhibition at 10 µM [3]: 67 to 100%
Cc1cc(-c2cc3cnc(NC(=O)C4CC4)cc3n2CCO)ccn1 [Example 93, N-(1-(2-hydroxyethyl)-2-(2-methylpyridin-4-yl)-1H-pyrrolo[3,2-c]pyridin-6-yl)cyclopropanecarboxamide] |  |  | > 1 | inhibition at 1 µM (single point inhibition @ 1 uM): 0 to 33%; inhibition at 10 µM [3]: 0 to 33%
Cc1cc(-c2cc3cnc(NC(=O)CN4CCCC4)cc3n2C)ncn1 [Example 128, N-(1-methyl-2-(6-methylpyrimidin-4-yl)-1H-pyrrolo[3,2-c]pyridin-6-yl)-2-(pyrrolidin-1-yl)acetamide] |  |  | > 1 | 
Cn1cc(-c2cc3cnc(NC(=O)C4CC4)cc3n2C)cn1 [Example 102, N-(1-methyl-2-(1-methyl-1H-pyrazol-4-yl)-1H-pyrrolo[3,2-c]pyridin-6-yl)cyclopropanecarboxamide] |  |  | > 1 | 
FC(F)(F)CNc1cc(-c2cc3cnc(NC4CCOCC4)cc3[nH]2)ncn1 [Example 360, N -(tetrahydro-2H-pyran-4-yl)-2-(6-(2,2,2-trifluoroethylamino)pyrimidin-4-yl)-1H-pyrrolo[3,2-c]pyridin-6-amine] |  |  | < 0.5 | 
COC1CCC(OC(=O)Nc2cc3[nH]c(-c4ccnc(C)c4)cc3cn2)CC1 (stereo not shown) [Example 206, 4-methoxycyclohexyl 2-(2-methylpyridin-4-yl)-1H-pyrrolo[3,2-c]pyridin-6-ylcarbamate] | 0 to 33 | 67 to 100 |  | 
Cc1cc(-c2cc3cnc(NC(=O)OC4CCCC4)cc3[nH]2)ccn1 [Example 170, cyclopentyl 2-(2-methylpyridin-4-yl)-1H-pyrrolo[3,2-c]pyridin-6-ylcarbamate] |  |  |  | inhibition at 1 µM (single point inhibition @ 1 uM): 0 to 33%; inhibition at 10 µM [3]: 67 to 100%
Cc1nn(C)cc1C(=O)Nc1cc2[nH]c(-c3ccnc(OC(C)C(F)(F)F)n3)cc2cn1 (stereo in doubt) [Example 136, (S)-1,3-dimethyl-N-(2-(2-(1,1,1-trifluoropropan-2-yloxy)pyrimidin-4-yl)-1H-pyrrolo[3,2-c]pyridin-6-yl)-1H-pyraozle-4-carboxamide] |  |  |  | inhibition at 1 µM (single point inhibition @ 1 uM): 0 to 33%; inhibition at 10 µM [3]: 67 to 100%

Structure (SMILES) | inhibition at 1 µM [1] [%] | inhibition at 10 µM [2] [%] | EC50 [µM] | other results
Cn1cc(C(=O)Nc2cc3[nH]c(C4CCOCC4)cc3cn2)cn1 [Example 259, 1-methyl-N-(2-(tetrahydro-2H-pyran-4-yl)-1H-pyrrolo[3,2-c]pyridin-6-yl)-1H-pyrazole-4-carboxamide] | 0 to 33 | 0 to 33 |  | 
Cc1cc(-c2cc3cnc(NC4CCOCC4)cc3[nH]2)ncn1 [Example 38] |  |  | > 1 | 
c1ccc(Nc2cc3[nH]c(-c4cccnc4)cc3cn2)cc1 [Example 189, N-phenyl-2-(pyridin-3-yl)-1H-pyrrolo[3,2-c]pyridin-6-amine] |  |  |  | inhibition at 1 µM (single point inhibition @ 1 uM): 0 to 33%; inhibition at 10 µM [3]: 67 to 100%
CC(C)c1cc(-c2cc3cnc(NC4CCOCC4)cc3n2C)ncn1 [Example 395, 2-(6-isopropylpyrimidin-4-yl)-1-methyl-N-(tetrahydro-2H-pyran-4-yl)-1H-pyrrolo[3,2-c]pyridin-6-amine] |  |  | > 1 | 
Cn1c(-c2ccncc2)cc2cnc(Nc3cnn(C4CCOCC4)c3)cc21 [Example 138, 1-methyl-2-(pyridin-4-yl)-N-(1-(tetrahydro-2H-pyran-4-yl)-1H-pyrazol-4-yl)-1H-pyrrolo[3,2-c]pyridin-6-amine] |  |  |  | inhibition at 1 µM (single point inhibition @ 1 uM): 0 to 33%; inhibition at 10 µM [3]: 67 to 100%
Cc1nc(-c2cc3cnc(NC(=O)C4CC4)cc3[nH]2)co1 [Example 335, N-(2-(2-methyloxazol-4-yl)-1H-pyrrolo[3,2-c]pyridin-6-yl)cyclopropanecarboxamide] | 0 to 33 | 0 to 33 |  | 
N#Cc1cc2cnc(Nc3cnn(C4CCOCC4)c3)cc2[nH]1 [Example 151, 6-(1-(tetrahydro-2H-pyran-4-yl)-1H-pyrazol-4-ylamino)-1H-pyrrolo[3,2-c]pyridine-2-carbonitrile] |  |  |  | inhibition at 1 µM (single point inhibition @ 1 uM): 0 to 33%; inhibition at 10 µM [3]: 67 to 100%
Cc1cc(-c2cc3cnc(NC(=O)OC4CCOC4)cc3[nH]2)ccn1 (stereo in doubt) [Example 152, (R)-tetrahydrofuran-3-yl 2-(2-methylpyridin-4-yl)-1H-pyrrolo[3,2-c]pyridin-6-ylcarbamate] |  |  |  | inhibition at 1 µM (single point inhibition @ 1 uM): 0 to 33%; inhibition at 10 µM [3]: 67 to 100%
CN(CC(F)(F)F)c1cc(-c2cc3cnc(NC4CCOCC4)cc3[nH]2)ncn1 [Example 394, 2-(6-(methyl(2,2,2-trifluoroethyl)amino)pyrimidin-4-yl)-N-(tetrahydro-2H-pyran-4-yl)-1H-pyrrolo[3,2-c]pyridin-6-amine] |  |  | > 1 | 
Cc1cc(-c2cc3cnc(NC(=O)CC4COC4)cc3[nH]2)ccn1 [Example 165, N-(2-(2-methylpyridin-4-yl)-1H-pyrrolo[3,2-c]pyridin-6-yl)-2-(oxetan-3-yl)acetamide] |  |  |  | inhibition at 1 µM (single point inhibition @ 1 uM): 0 to 33%; inhibition at 10 µM [3]: 67 to 100%
Cc1cc(C(=O)Nc2cc3[nH]c(-c4ccnc(NCC(F)(F)F)c4)cc3cn2)nn1C [Example 305, 1,5-dimethyl-N-(2-(2-(2,2,2-trifluoroethylamino)pyridin-4-yl)-1H-pyrrolo[3,2-c]pyridin-6-yl)-1H-pyrazole-3-carboxamide] | 0 to 33 | 0 to 33 |  | 
CO[C@H]1C[C@H](C(=O)Nc2cc3[nH]c(-c4ccnc(C)c4)cc3cn2)C1 [Example 161, (1r,3r)-3-methoxy-N-(2-(2-methylpyridin-4-yl)-1H-pyrrolo[3,2-c]pyridin-6-yl)cyclobutanecarboxamide] |  |  |  | inhibition at 1 µM (single point inhibition @ 1 uM): 0 to 33%; inhibition at 10 µM [3]: 67 to 100%
Cn1cc(-c2cc3cnc(Nc4ccc(C(F)(F)F)cc4)cc3[nH]2)cn1 [Example 222] |  | 33 to 66 |  | 
Cc1cc(-c2[nH]c3cc(NC4CCOC4)ncc3c2C)ccn1 (stereo in doubt) [Example 367, (S)-3-methyl-2-(2-methylpyridin-4-yl)-N-(tetrahydrofuran-3-yl)-1H-pyrrolo[3,2-c]pyridin-6-amine] |  |  | > 1 | 
FC1(F)CC(c2cc3cnc(NC4CCOCC4)cc3[nH]2)C1 [Example 397, 2-(3,3-difluorocyclobutyl)-N-(tetrahydro-2H-pyran-4-yl)-1H-pyrrolo[3,2-c]pyridin-6-amine] | 33 to 66 | 33 to 66 |  | 
Cc1nn(C)cc1C(=O)Nc1cc2[nH]c(-c3ccncc3)cc2cn1 [Example 278, 1,3-dimethyl-N-(2-(pyridin-4-yl)-1H-pyrrolo[3,2-c]pyridin-6-yl)-1H-pyrazole-4-carboxamide] | 0 to 33 | 0 to 33 |  | 
Cn1cc(C(=O)Nc2cc3[nH]c(-c4ccnc(OCC(F)(F)F)n4)cc3cn2)cn1 [Example 308, 1-methyl-N-(2-(2-(2,2,2-trifluoroethoxy)pyrimidin-4-yl)-1H-pyrrolo[3,2-c]pyridin-6-yl)-1H-pyrazole-4-carboxamide] | 0 to 33 | 0 to 33 |  | 
